Drawing on the OligoGym collection, this text covers remaining target (mRNA or protein) (fraction of control) for 116 sequences.

These antisense oligonucleotides have a phosphorothioate backbone; sugars and methylation of C are not fully specified. A value given as a limit tells only on which side of the number the result lay.
Further: test concentration or dose not given here.

The first data set deals with PRKCA. The note with it: ASO.
As to CACTGCGGGGAGGGCTGGGG, the remaining target (mRNA or protein) (fraction of control) was ≥ 1. Regarding AGTCGGTGCAGTGGCTGGAG, the remaining target (mRNA or protein) (fraction of control) amounted to 0.88. On the same count and under the same terms, under CCCGGGAAAACGTCAGCCAT stands 0.52; under GTCAGCCATGGTCCCCCCCC, 0.46. Sequence ATTTTCAGGCCTCCATATGG yielded a remaining target (mRNA or protein) (fraction of control) of 0.82. For AAAACGTCAGCCATGGTCCC, the remaining target (mRNA or protein) (fraction of control) amounted to 0.39. Sequence GGGCTGGGGAGGTGTTTGTT showed a remaining target (mRNA or protein) (fraction of control) of 0.95. Regarding AAGAGAGAGACCCTGAACAG, the remaining target (mRNA or protein) (fraction of control) was found to be 0.62.

On to GGATTCACTTCCACTGCGGG, for which the remaining target (mRNA or protein) (fraction of control) stood at 0.82. GCAGAGGCTGGGGACATTGA came in with a remaining target (mRNA or protein) (fraction of control) of 0.81.

Consider GAGACCCTGAACAGTTGATC, for which the remaining target (mRNA or protein) (fraction of control) worked out at 0.61.

In turn, CCCCAACCACCTCTTGCTCC yielded a remaining target (mRNA or protein) (fraction of control) of 0.39. Sequence ATGGGGTGCACAAACTGGGG came in with a remaining target (mRNA or protein) (fraction of control) of 0.94. In the case of TGGAATCAGACACAAGCCGT, the remaining target (mRNA or protein) (fraction of control) worked out at 0.89.

CTGCCTCAGCGCCCCTTTGC showed a remaining target (mRNA or protein) (fraction of control) of 0.47. On the same count and under the same terms, under AGCCGTGGCCTTAAAATTTT stands 0.84; under TCAAATGGAGGCTGCCCGGC, 0.66; under CGCCGTGGAGTCGTTGCCCG, 0.54. For the sequence GATAATGTTCTTGGTTGTAA, the remaining target (mRNA or protein) (fraction of control) is 0.85. On the same count and under the same terms, next, GTTCTCGCTGGTGAGTTTCA: 0.52.

Another data set has as its target RAF1. The settings on record: ASO.
With CAGCACTGCAAATGGCTTCC, the remaining target (mRNA or protein) (fraction of control) was determined as 0.8. TCTGGCGCTGCACCACTCTC came in with a remaining target (mRNA or protein) (fraction of control) of 0.25. Sequence CCCTGTATGTGCTCCATTGA came in with a remaining target (mRNA or protein) (fraction of control) of 0.38. For CAAGAAAACCTGTATTCCTG, the remaining target (mRNA or protein) (fraction of control) is ≥ 1. As to GGTGCAAAGTCAACTAGAAG, the remaining target (mRNA or protein) (fraction of control) was 0.88. For the sequence TTAAAATAACATAATTGAGG, the remaining target (mRNA or protein) (fraction of control) is 0.93. On to TCCCGCCTGTGACATGCATT, for which the remaining target (mRNA or protein) (fraction of control) was found to be 0.05. On the same count and under the same terms, next, CTGGGCTGTTTGGTGCCTTA: 0.8. Take GATGCAGCTTAAACAATTCT: the remaining target (mRNA or protein) (fraction of control) stood at 0.99. Regarding GCTCCTGGAAGACAAAATTC, the remaining target (mRNA or protein) (fraction of control) amounted to 0.82. Take CTCGCCCGCTCCTCCTCCCC: the remaining target (mRNA or protein) (fraction of control) was ≥ 1. TTCTCGCCCGCTCCTCCTCC gave a remaining target (mRNA or protein) (fraction of control) of 0.65. Still for that read-out and setting: next, ATTCTTAAACCTGAGGGAGC: ≥ 1.

Sequence CGCTCCTCCTCCCCGCGGCG came in with a remaining target (mRNA or protein) (fraction of control) of 0.35. In turn, TCCTCCTCCCCGCGGCGGGT came in with a remaining target (mRNA or protein) (fraction of control) of 0.95. Same read-out and setting: next, GCTCCATTGATGCAGCTTGA: 0.63. TTGAGCATGGGGAATGTGGG had a remaining target (mRNA or protein) (fraction of control) of 0.63. With GGTGAGGGAGCGGGAGGCGG, the remaining target (mRNA or protein) (fraction of control) is 0.98.

CTGATTTCCAAAATCCCATG displayed a remaining target (mRNA or protein) (fraction of control) of 0.26. With TGTAGCCAACAGCTGGGGCT, the remaining target (mRNA or protein) (fraction of control) was determined as 0.96. Take GCCGCCCCAACGTCCTGTCG: the remaining target (mRNA or protein) (fraction of control) was 0.42. CCTGCTGGCTTCTCCTCCTC displayed a remaining target (mRNA or protein) (fraction of control) of 0.92. The sequence TGTGACTAGAGAAACAAGGC returned a remaining target (mRNA or protein) (fraction of control) of 0.68. For TTCGGCGGCAGCTTCTCGCC, the remaining target (mRNA or protein) (fraction of control) stood at 0.37.

As to TGAAGGTGAGCTGGAGCCAT, the remaining target (mRNA or protein) (fraction of control) is ≥ 1. On the same count and under the same terms, under GTCTGGCGCTGCACCACTCT stands 0.35; under CGGGAGGCGGTCACATTCGG, 0.25; under TTGTCAGGTGCAATAAAAAC, 0.88.

The sequence CTGGCTTCTCCTCCTCCCCT gave a remaining target (mRNA or protein) (fraction of control) of 0.95.

Turning to ACCATCAACATCCACTTGCG, the remaining target (mRNA or protein) (fraction of control) is ≥ 1. TCAGGGCTGGACTGCCTGCT yielded a remaining target (mRNA or protein) (fraction of control) of 0.52. TTCTCCTCCTCCCCTGGCAG had a remaining target (mRNA or protein) (fraction of control) of 0.8. With CTGAGAGGGCTGAGATGCGG, the remaining target (mRNA or protein) (fraction of control) is ≥ 1.

In turn, GCCGAGTGCCTTGCCTGGAA came in with a remaining target (mRNA or protein) (fraction of control) of 0.98.

The next data set deals with Agtr1a (rat). The settings on record: ASO.
For GCGGTCGATGCTGAGACACG, the remaining target (mRNA or protein) (fraction of control) was determined as 0.35. With TTCAGGCAGTTGTTAAAATA, the remaining target (mRNA or protein) (fraction of control) is 0.86. GGCGTAGAGGTTGAAGCTCA showed a remaining target (mRNA or protein) (fraction of control) of 0.27.

In turn, GGTATAGCTGGTGAGAATGAT registered a remaining target (mRNA or protein) (fraction of control) of 0.46. As for TAAAGGGTATAGCTGGTGAGA, the remaining target (mRNA or protein) (fraction of control) worked out at 0.35. Same read-out and setting: next, AGAGGGTTCAGGCAGTTGTT: 0.3; GTGATGGGCATGGCAGTGTC: 0.29; TGGTGATGGGCATGGCAGTG: 0.21. On the same count and under the same terms, next, ACACGTGTGAAGGAACACAC: 0.51; ATAGCTGGTGAGAATGATAAG: 0.44; AGAAGAGTTAAGGGCCATTT: 0.46. In turn, GGATGCGGTCGATGCTGAGA had a remaining target (mRNA or protein) (fraction of control) of 0.39.

Sequence GATGGTGATGGGCATGGCAG had a remaining target (mRNA or protein) (fraction of control) of 0.32.

GGTCGATGCTGAGACACGTG registered a remaining target (mRNA or protein) (fraction of control) of 0.49. For the sequence GGGTTCAGGCAGTTGTTAAA, the remaining target (mRNA or protein) (fraction of control) is 0.29. Consider AAGGGTATAGCTGGTGAGAAT, for which the remaining target (mRNA or protein) (fraction of control) was determined as 0.39. On the same count and under the same terms, next, AACAGAGGGTTCAGGCAGTT: 0.29; AGCGTCGAATTCCGAGACTC: 0.29.

With GTCGAATTCCGAGACTCATA, the remaining target (mRNA or protein) (fraction of control) turned out to be 0.25. Still for that read-out and setting: next, AGACACGTGTGAAGGAACAC: 0.5. CAGCAGAAGAGTTAAGGGCC: the remaining target (mRNA or protein) (fraction of control) worked out at 0.37. Take GCAGAAGAGTTAAGGGCCAT: the remaining target (mRNA or protein) (fraction of control) is 0.32. In the case of CTGGCGTAGAGGTTGAAGCT, the remaining target (mRNA or protein) (fraction of control) was 0.41.

Regarding ATGCGGTCGATGCTGAGACA, the remaining target (mRNA or protein) (fraction of control) worked out at 0.75. As for GGGAGCGTCGAATTCCGAGA, the remaining target (mRNA or protein) (fraction of control) amounted to 0.21.

The target of a further data set is NSMAF. The note with it: ASO.
CTCTTCTGGAGAAAGTCC showed a remaining target (mRNA or protein) (fraction of control) of 0.67.

For the sequence AGATCCCGGAAGGTTCCT, the remaining target (mRNA or protein) (fraction of control) came to 0.22. The sequence TTTAGGTAGATGTCGGAA came in with a remaining target (mRNA or protein) (fraction of control) of 0.52. TGTCAGTAGTCTCTCCAG returned a remaining target (mRNA or protein) (fraction of control) of 0.25.

In turn, CTGCAGCATGTAGCTCTC came in with a remaining target (mRNA or protein) (fraction of control) of 0.83. In turn, GAGTGTTATCTGGACCAC gave a remaining target (mRNA or protein) (fraction of control) of 0.28. As for CACAGCATATACTCTGGT, the remaining target (mRNA or protein) (fraction of control) turned out to be 0.35.

TACACTGACATCATGTTC gave a remaining target (mRNA or protein) (fraction of control) of 0.43.

TATGACAGTGGCATCTCC returned a remaining target (mRNA or protein) (fraction of control) of 0.65. The same measure, in the same setting: under CATTTTATCTGCCCTAAG stands 0.56; under CCTCCTTCATAGGTCAGG, 0.74. In the case of TGTGTCCGTGATGCACAC, the remaining target (mRNA or protein) (fraction of control) came to 0.24.

Sequence TTTGTGAAGTGTCTATTG displayed a remaining target (mRNA or protein) (fraction of control) of 0.51. TTTCCTTTCATGGTGACT had a remaining target (mRNA or protein) (fraction of control) of 0.43. On the same count and under the same terms, next, TCAAGGCAGGATGCTCTG: 0.23. The same measure, in the same setting: under TTCCATGTGCAGCTTTTC stands 0.34.

Consider GCATGGCTACCTTCTCAT, for which the remaining target (mRNA or protein) (fraction of control) worked out at 0.15. Still for that read-out and setting: next, CGAGACTGCAAAATAGCT: 0.32; GTCTCCACAACATCTTCC: 0.86. The same measure, in the same setting: under TGTTGAACATTCTATCTG stands 0.79. In the case of TTAAAATCCGTTGCACCA, the remaining target (mRNA or protein) (fraction of control) is 0.55.

In turn, GTGATTCCAGTAACTGCT came in with a remaining target (mRNA or protein) (fraction of control) of 0.36. As for ACTCGTGAAGGTGTTCAG, the remaining target (mRNA or protein) (fraction of control) was determined as 0.34. The sequence GCCGTGCCTCCTTTTGTA had a remaining target (mRNA or protein) (fraction of control) of 0.47. On the same count and under the same terms, next, GGCTGGGATATTGAATCT: 0.72; ATCTGTCCTCCTTGTCTC: 0.47.

With ATCTGCCATAGAAGCATT, the remaining target (mRNA or protein) (fraction of control) stood at 0.56. On to GACTCCCATACATGAACT, for which the remaining target (mRNA or protein) (fraction of control) was determined as 0.51.

As to CCTTTCTATTTTATATGG, the remaining target (mRNA or protein) (fraction of control) was found to be 0.74. The same measure, in the same setting: under ATACAGTCTCTCAAAGGA stands 0.73.

The next data set has as its target ABCB1. The settings on record: ASO.
Sequence AGTTCTTCTTTGCTGCTCCA came in with a remaining target (mRNA or protein) (fraction of control) of 0.7. In turn, TCCCCTTCAAGATCCATCCC returned a remaining target (mRNA or protein) (fraction of control) of 0.2.

For GAGCTTGGAAGAGCCGCTACT, the remaining target (mRNA or protein) (fraction of control) came to 0.54. In the case of ACTGACAGTTGGTTTCTTT, the remaining target (mRNA or protein) (fraction of control) was determined as 0.84.

For TGACAGTTGGTTTCTTTCC, the remaining target (mRNA or protein) (fraction of control) was 0.85.

In the case of TTTTATTGTTCAGTTTAAAAA, the remaining target (mRNA or protein) (fraction of control) worked out at 0.92. GACCTCGCGCTCCTTGGAAC gave a remaining target (mRNA or protein) (fraction of control) of 0.17.
